Patent publication US20060252732A1, “Blood vessel-growth promoter” (priority 2003, published 2006)

Experiments:
[1] = tested on: human vascular endothelial cells (HUVEC) and fibroblast; experiment: Measurement of neo-vascularization ability (tube formation, CD31 staining, Angiogenesis Kit KZ-1000); assay type: cell-based
Description: Measurement of Neo-Vascularization Ability
The tube formation by a mixture-system of human vascular endothelial cells (HUVEC) and fibroblast was investigated by CD31 staining kit (Kurabo Ind.) to be visualized, and be made score by an analytical soft (NIH Image). A broth containing acetylsalicylic (0.5, 5.5, 55 μM; changed every three days) was added to neo-vascularization kit (Angiogenesis Kit KZ-1000; Kurabo Ind.) prepared by mixing human vascular endothelial cells and fibroblast, and the resulting broth was cultivated for 11 days. Then immuno histochemical study was performed by using CD31 staining kit, and the color photo was taken. The picture was analyzed using NIH Image and the amount of the formed tubes was scored as an area to evaluate. As a positive control, vascula endothelial growth factor (VEGF; 10 ng/mL) and as a negative control sramine (100 μM) were used, respectively.

[2] = tested on: human umbilical vein endothelial cells (HUVEC); experiment: Proliferation test on human umbilical vein endothelial cells (HUVEC); assay type: cell-based
Description: Proliferation Test on Human Umbilical Vein Endothelial Cells (HUVEC) […] After the culture broth was filtered by suction, to a minimum essential medium (MEM) broth containing 1% FBS, acetylsalicylic acid was added at a concentration (0, 0.055, 0.55, 5.5, 55, 555 μM, respectively) and each mixture was cultivated. After 0, 24 and 48 hours the number of alive cells was counted. As a positive control vascular endothelial growth factor (VEGF; Vascular Endothelial Growth Factor-A) (20 ng/mL) was used. In this measurement, Cell Counting Kit-8 (Dojin Chemical Co.) was used.

Wister female rats = experiment: Neo-vascularization test using rats (subcutaneous urethane sponge, carmine dye); assay type: in vivo, rat
Description: Neo-Vascularization Test Using Rats
Wister female rats (7 weeks old; n=6) were anesthetized with ether, and a urethane sponge (diameter: 8 mm) previously permeating a drug was inserted in subcutaneous tissue of right shoulder. As a test drug, acetylsalicylic acid (2 mg) and as a positive control retinoid (0.5 mg) were administered, respectively. Four days later after insertion of the sponge, 5% gelatin solution containing 5% carmine dye kept at 37° C. was administered under ether anesthesia in tail vein of the rat. After injection, the rats in suspended animation were left at 4° C. for 2 hours, and the gelatin solution containing carmine dye distributed in blood vessel was solidified. After butcher of the rats, the sponge with granulation tissue was extracted and the dye therein was extracted. Absorbancy at 530 nm was measured to calculate the amount of the carmine dye.

Cc1ccc(C(=O)Nc2ccc(S(=O)(=O)O)c3cc(S(=O)(=O)O)cc(S(=O)(=O)O)c23)cc1NC(=O)c1cccc(NC(=O)Nc2cccc(C(=O)Nc3cc(C(=O)Nc4ccc(S(=O)(=O)O)c5cc(S(=O)(=O)O)cc(S(=O)(=O)O)c45)ccc3C)c2)c1 [Sramine, sramine]
Neo-vascularization ability, Relative area After 11 days ([1]; 100 μM (negative control)): 0.04

VEGF
Neo-vascularization ability, Relative area After 11 days ([1]; 10 ng/mL (positive control)): 1.71 | Change of the number of HUVEC, Relative absorvancy ([2]; 20 ng/mL (positive control), after 0 hour): 1.003 | Change of the number of HUVEC, Relative absorvancy ([2]; 20 ng/mL (positive control), after 24 hours): 2.041 | Change of the number of HUVEC, Relative absorvancy ([2]; 20 ng/mL (positive control), after 48 hours): 1.889

CC(=O)Oc1ccccc1C(=O)O [Acetylsalicylic acid, acetylsalicylic acid]
Tube-formation promoting activity [1]: showed tube-formation promoting activity | Neo-vascularization ability, Relative area After 11 days ([1]; 5.5 μM): 1.17 | Neo-vascularization ability, Relative area After 11 days ([1]; 55 μM): 1.08 | Change of the number of HUVEC, Relative absorvancy ([2]; 0.055 μM drug, after 0 hour): 1.102 | Change of the number of HUVEC, Relative absorvancy ([2]; 0.055 μM drug, after 24 hours): 1.252 | Change of the number of HUVEC, Relative absorvancy ([2]; 0.055 μM drug, after 48 hours): 1.303 | Change of the number of HUVEC, Relative absorvancy ([2]; 0.55 μM drug, after 0 hour): 1.144 | Change of the number of HUVEC, Relative absorvancy ([2]; 0.55 μM drug, after 24 hours): 2.001 | Change of the number of HUVEC, Relative absorvancy ([2]; 0.55 μM drug, after 48 hours): 1.709 | Change of the number of HUVEC, Relative absorvancy ([2]; 5.5 μM drug, after 0 hour): 1.084 | Change of the number of HUVEC, Relative absorvancy ([2]; 5.5 μM drug, after 24 hours): 1.811 | Change of the number of HUVEC, Relative absorvancy ([2]; 5.5 μM drug, after 48 hours): 1.575 | Change of the number of HUVEC, Relative absorvancy ([2]; 55 μM drug, after 0 hour): 1.107 | Change of the number of HUVEC, Relative absorvancy ([2]; 55 μM drug, after 24 hours): 1.754 | Change of the number of HUVEC, Relative absorvancy ([2]; 55 μM drug, after 48 hours): 1.475 | Change of the number of HUVEC, Relative absorvancy ([2]; 555 μM drug, after 0 hour): 1.017 | Change of the number of HUVEC, Relative absorvancy ([2]; 555 μM drug, after 24 hours): 1.044 | Change of the number of HUVEC, Relative absorvancy ([2]; 555 μM drug, after 48 hours): 0.699 | Proliferation promoting activity of HUVEC ([2]; added in more than 0.055 μM): proliferation promoting activity of HUVEC was confirmed | Proliferation promoting effect on HUVEC ([2]; added in more than 555 μM): proliferation promoting effect was not recognized or was even depressed | Neo-vascularization promoting activity in vivo (Wister female rats): neo-vascularization promoting activity was shown | Amount of carmine dye (Wister female rats; 2 mg in sponge, subcutaneous, 4 days after insertion): 16.0 ± 4.2 µg/mL
